Results on 19 molecules are retold here after PubChem BioAssay AID248 (DTP/NCI, 2004).

Where “and” joins values, the source holds several entries; their conditions need not be identical. Identical values can stand only once. Toxic doses and inconclusive results are not listed.

The assay concerns L1210 leukemia ip in BDF1 mice, survival T/C. In words: NCI In Vivo Anticancer Drug Screen. Data for tumor model L1210 Leukemia (intraperitoneal) in B6D2F1 (BDF1) mice. The conditions noted are these: endpoint: mean survival time, higher = longer survival. Put shortly:
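Antitumor effect is assessed in tumor-bearing animals. Survival in the compound arm is compared with a vehicle-dosed control arm and expressed as their quotient.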

Setting [1] is: dose: 25.0 mg/kg/injection, schedule: Q04DX002 (ip), vehicle: saline.
Setting [2] is: dose: 100.0 mg/kg/injection, schedule: Q01DX009 (ip), vehicle: Klucel (hydroxypropylcellulose) (HPC).
Where [3] appears, read: dose: 100.0 mg/kg/injection, schedule: Q04DX003 (ip), vehicle: Klucel (hydroxypropylcellulose) (HPC).
Where [4] appears, read: dose: 200.0 mg/kg/injection, schedule: Q01DX009 (ip), vehicle: Klucel (hydroxypropylcellulose) (HPC).
Setting [5] is: dose: 200.0 mg/kg/injection, schedule: Q04DX003 (ip), vehicle: Klucel (hydroxypropylcellulose) (HPC).
Where [6] appears, read: dose: 400.0 mg/kg/injection, schedule: Q01DX009 (ip), vehicle: Klucel (hydroxypropylcellulose) (HPC).
The mark [7] stands for this setting: dose: 400.0 mg/kg/injection, schedule: Q04DX003 (ip), vehicle: Klucel (hydroxypropylcellulose) (HPC).
Where [8] appears, read: dose: 75.0 mg/kg/injection, schedule: Q01DX001 (ip), vehicle: saline.
[9] abbreviates: dose: 150.0 mg/kg/injection, schedule: Q01DX001 (ip), vehicle: saline.
Where [10] appears, read: dose: 300.0 mg/kg/injection, schedule: Q01DX001 (ip), vehicle: saline.
[11] abbreviates: dose: 50.0 mg/kg/injection, schedule: Q01DX001 (ip), vehicle: saline.
[12] abbreviates: dose: 100.0 mg/kg/injection, schedule: Q01DX001 (ip), vehicle: saline.
The mark [13] stands for this setting: dose: 200.0 mg/kg/injection, schedule: Q01DX001 (ip), vehicle: saline.
Setting [14] is: dose: 100.0 mg/kg/injection, schedule: Q01DX001 (ip), vehicle: saline with Tween-80.
Where [15] appears, read: dose: 200.0 mg/kg/injection, schedule: Q01DX001 (ip), vehicle: saline with Tween-80.
Where [16] appears, read: dose: 400.0 mg/kg/injection, schedule: Q01DX001 (ip), vehicle: saline with Tween-80.
[17] abbreviates: dose: 100.0 mg/kg/injection, schedule: Q04DX003 (ip), vehicle: saline with Tween-80.
[18] abbreviates: dose: 200.0 mg/kg/injection, schedule: Q04DX003 (ip), vehicle: saline with Tween-80.

Consider `CC/C(=C(\CC)c1ccc(OCC(=O)OCCNCCCl)cc1)c1ccc(OCC(=O)OCCNCCCl)cc1`, for which the T/C reads like this: (dose: 6.25 mg/kg/injection, schedule: Q04DX002 (ip), vehicle: saline) 94 % of control; (dose: 12.5 mg/kg/injection, schedule: Q04DX002 (ip), vehicle: saline) 97 % of control; under setting [1], 94 % of control.
With `c1cc2n(c1)Cc1cc3c(cc1NC2)OCO3`, the T/C is, setting by setting: (dose: 25.0 mg/kg/injection, schedule: Q04DX002 (ip), vehicle: Klucel (hydroxypropylcellulose) (HPC)) 90 % of control; (dose: 50.0 mg/kg/injection, schedule: Q04DX002 (ip), vehicle: Klucel (hydroxypropylcellulose) (HPC)) 86 % of control; (dose: 100.0 mg/kg/injection, schedule: Q04DX002 (ip), vehicle: Klucel (hydroxypropylcellulose) (HPC)) 94 % of control.
With `CC1CC(NC(=O)N(CCCl)N=O)CC(C)(C)C1` (configuration not stated), the T/C runs as follows: (dose: 8.0 mg/kg/injection, schedule: Q01DX001 (ip), vehicle: other) 96 % of control; (dose: 16.0 mg/kg/injection, schedule: Q01DX001 (ip), vehicle: other) 94 % of control; (dose: 31.0 mg/kg/injection, schedule: Q01DX001 (ip), vehicle: other) 105 % of control; (dose: 62.0 mg/kg/injection, schedule: Q01DX001 (ip), vehicle: other) 120 % of control; (dose: 250.0 mg/kg/injection, schedule: Q01DX001 (ip), vehicle: other) 157 % of control; (dose: 375.0 mg/kg/injection, schedule: Q01DX001 (ip), vehicle: other) 292 % of control. Moreover, the T/C (dose: 500.0 mg/kg/injection, schedule: Q01DX001 (ip), vehicle: other) is 308 % of control and the T/C (dose: 750.0 mg/kg/injection, schedule: Q01DX001 (ip), vehicle: other) was 333 % of control.
With `Cc1ccc(SSc2ccc(C)cc2[N+](=O)[O-])c([N+](=O)[O-])c1`, the T/C under setting [2] was 92 % of control; the T/C under setting [3] was 97 % of control; the T/C under setting [4] was 91 % of control; the T/C under setting [5] was 90 % of control; the T/C under setting [6] was 90 % of control; the T/C under setting [7] was 94 % of control.
In the case of `NC(CS(N)(=O)=O)C(=O)O` (configuration not stated), the T/C by setting is: under setting [8], 97 % of control; under setting [9], 103 % of control; under setting [10], 102 % of control.
Turning to `CCCCCCCCCCCS(=O)(=O)C(CCOS(C)(=O)=O)COS(C)(=O)=O` (configuration not stated), the T/C by setting is: under setting [2], 93 % of control; under setting [3], 100 % of control; under setting [4], 95 % of control; under setting [5], 98 % of control; under setting [7], 96 % of control.
With `O=C(Nc1ncccn1)C(F)(F)F`, the T/C is, setting by setting: under setting [11], 95 % of control; under setting [12], 92 % of control; under setting [13], 95 % of control; (dose: 400.0 mg/kg/injection, schedule: Q01DX001 (ip), vehicle: saline) 90 % of control.
For the molecule `C[N+](C)(C)CCC[N+]1(C)CCC2(CCCC(C(F)(F)F)C2)CC1` (configuration not stated), the T/C reads like this: under setting [11], 98 % of control; under setting [12], 104 % of control; under setting [13], 96 % of control.
For the molecule `O=c1[nH]c(/C=C/c2ccccc2)c(S(=O)(=O)N2CCCCC2)c(=O)[nH]1`, the T/C runs as follows: (dose: 100.0 mg/kg/injection, schedule: Q01DX001 (ip), vehicle: Klucel (hydroxypropylcellulose) (HPC)) 93 % of control; (dose: 200.0 mg/kg/injection, schedule: Q01DX001 (ip), vehicle: Klucel (hydroxypropylcellulose) (HPC)) 87 % of control; (dose: 400.0 mg/kg/injection, schedule: Q01DX001 (ip), vehicle: Klucel (hydroxypropylcellulose) (HPC)) 93 % of control.
`COc1cc(C=Nc2cccc(F)c2)ccc1N(CCCl)CCCl`: the T/C by setting is: (dose: 2.5 mg/kg/injection, schedule: Q01DX009 (ip), vehicle: carboxymethylcellulose (CMC)) 96 % of control; (dose: 5.0 mg/kg/injection, schedule: Q01DX009 (ip), vehicle: carboxymethylcellulose (CMC)) 104 % of control; (dose: 10.0 mg/kg/injection, schedule: Q01DX009 (ip), vehicle: acetone) 118 % of control; (dose: 10.0 mg/kg/injection, schedule: Q01DX009 (ip), vehicle: carboxymethylcellulose (CMC)) 108 % of control; (dose: 45.0 mg/kg/injection, schedule: Q01DX001 (ip), vehicle: saline) 110 % of control; (dose: 50.0 mg/kg/injection, schedule: Q01DX001 (ip), vehicle: carboxymethylcellulose (CMC)) 101 % of control. Also, the T/C (dose: 67.0 mg/kg/injection, schedule: Q01DX001 (ip), vehicle: saline) is 115 % of control; the T/C (dose: 100.0 mg/kg/injection, schedule: Q01DX001 (ip), vehicle: carboxymethylcellulose (CMC)) is 98 % of control; the T/C (dose: 200.0 mg/kg/injection, schedule: Q01DX001 (ip), vehicle: carboxymethylcellulose (CMC)) is 103 % of control; the T/C under setting [13] was 152 % of control.
In the case of `CNC(=O)Oc1cc2c(cc1C)C(C)(C)CCC2(C)C`, the T/C runs as follows: under setting [2], 96 % of control; under setting [4], 96 % of control; under setting [6], 91 % of control.
Consider `C/C(Cl)=C/C(=O)O`, for which the T/C runs as follows: under setting [1], 106 % of control; (dose: 50.0 mg/kg/injection, schedule: Q04DX002 (ip), vehicle: saline) 92 % of control; under setting [14], 102 % of control; (dose: 100.0 mg/kg/injection, schedule: Q04DX002 (ip), vehicle: saline) 92 % of control; under setting [15], 105 % of control; (dose: 200.0 mg/kg/injection, schedule: Q04DX002 (ip), vehicle: saline) 98 % of control and 102 % of control. Under setting [16], the T/C was 96 % of control.
For `O=[N+]([O-])c1ccc(P(=O)(Nc2ccc(Cl)cc2)Nc2ccc(Cl)cc2)cc1`, the T/C was 86 % of control under setting [8], 86 % of control under setting [9] and 91 % of control under setting [10].
With `CCOC(=O)NCC(C)(CCN1CCOCC1)c1cccc2ccccc12` (configuration not stated), the T/C was 93 % of control (dose: 25.0 mg/kg/injection, schedule: Q04DX003 (ip), vehicle: saline with Tween-80); 97 % of control (dose: 50.0 mg/kg/injection, schedule: Q04DX003 (ip), vehicle: saline with Tween-80); 94 % of control under setting [2]; 103 % of control under setting [17].
For `O=C(O)c1ccccc1-c1ccccc1C(=O)Nc1ccc2c(c1)C(=O)c1ccccc1-2`, the T/C is 104 % of control under setting [17]; 101 % of control under setting [18]; 98 % of control (dose: 400.0 mg/kg/injection, schedule: Q04DX003 (ip), vehicle: saline with Tween-80).
In the case of `BrCC(Br)CBr`, the T/C (dose: 50.0 mg/kg/injection, schedule: Q01DX009 (ip), vehicle: saline with Tween-80) was 94 % of control; the T/C (dose: 100.0 mg/kg/injection, schedule: Q01DX009 (ip), vehicle: saline with Tween-80) was 91 % of control; the T/C under setting [17] was 94 % of control; the T/C (dose: 200.0 mg/kg/injection, schedule: Q01DX009 (ip), vehicle: saline with Tween-80) was 98 % of control; the T/C under setting [18] is 102 % of control.
Turning to `COc1cc2c(cc1OC)-c1ncnc(-c3ccccc3)c1C2`, the T/C is 95 % of control under setting [3], 94 % of control under setting [5] and 101 % of control under setting [7].
The corresponding values for `Cc1cc(C)cc(OCC(=O)O)c1` are 95 % of control, 90 % of control and 106 % of control.
As to `CCCCCCCCCCCCCCCCC`, the T/C is, setting by setting: under setting [14], 113 % of control; under setting [15], 108 % of control; under setting [16], 97 % of control.
